Test results as given in ChEMBL document CHEMBL1201862, “PubChem BioAssay data set” (2004).
Values joined by “and” are separate entries in the source; they are usually repeats but may differ in a detail not shown here. Identical values can stand only once. Active and inactive are the calls of the source.

Assays:
[1] = system: Streptococcus sp. 'group A'; test: growth inhibition of control SK(-) GAS strain, dose response, counter-screen for streptokinase expression inhibitor project, luminescence, kanamycin, BacTiterGlo, confirmation (AID 1900); type: functional, organism-based
Streptokinase A = target: T1, Streptokinase A (Streptococcus pyogenes serotype M1, UniProt P10520); test: S. pyogenes streptokinase expression inhibitors, potency, dose response, plasminogen activation absorbance, OD405 (AID 1914); type: functional, Streptococcus pyogenes M1 GAS;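 further: secreted streptokinase activity via plasminogen activation per viability signal from cell pellet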
T1 sequence (P10520 whole entry): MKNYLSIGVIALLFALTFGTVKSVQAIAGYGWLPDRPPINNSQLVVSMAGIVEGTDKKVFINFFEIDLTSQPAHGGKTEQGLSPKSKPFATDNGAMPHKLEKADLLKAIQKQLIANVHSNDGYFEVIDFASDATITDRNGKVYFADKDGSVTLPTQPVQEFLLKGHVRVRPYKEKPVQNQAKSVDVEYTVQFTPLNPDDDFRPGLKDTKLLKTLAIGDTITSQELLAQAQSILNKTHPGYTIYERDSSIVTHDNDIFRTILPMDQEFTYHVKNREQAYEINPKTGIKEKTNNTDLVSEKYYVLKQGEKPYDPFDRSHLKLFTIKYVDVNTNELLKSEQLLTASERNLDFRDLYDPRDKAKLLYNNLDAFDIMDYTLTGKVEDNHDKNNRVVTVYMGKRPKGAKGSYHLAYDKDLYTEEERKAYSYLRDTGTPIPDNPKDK

Streptococcus = test: Group A Streptococcus viability loss, dose response, counter-screen for streptokinase expression inhibitor project, luminescence, BacTiterGlo (AID 1915); type: functional, organism-based;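 further: potency for reduction of bacterial viability or growth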
[2] = target: Voltage-dependent T-type calcium channel subunit alpha-1H (Homo sapiens, UniProt O95180); type: functional;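 further: channel activity triggered by adding a high calcium stimulation buffer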
Sequence of Voltage-dependent T-type calcium channel subunit alpha-1H (O95180 whole entry): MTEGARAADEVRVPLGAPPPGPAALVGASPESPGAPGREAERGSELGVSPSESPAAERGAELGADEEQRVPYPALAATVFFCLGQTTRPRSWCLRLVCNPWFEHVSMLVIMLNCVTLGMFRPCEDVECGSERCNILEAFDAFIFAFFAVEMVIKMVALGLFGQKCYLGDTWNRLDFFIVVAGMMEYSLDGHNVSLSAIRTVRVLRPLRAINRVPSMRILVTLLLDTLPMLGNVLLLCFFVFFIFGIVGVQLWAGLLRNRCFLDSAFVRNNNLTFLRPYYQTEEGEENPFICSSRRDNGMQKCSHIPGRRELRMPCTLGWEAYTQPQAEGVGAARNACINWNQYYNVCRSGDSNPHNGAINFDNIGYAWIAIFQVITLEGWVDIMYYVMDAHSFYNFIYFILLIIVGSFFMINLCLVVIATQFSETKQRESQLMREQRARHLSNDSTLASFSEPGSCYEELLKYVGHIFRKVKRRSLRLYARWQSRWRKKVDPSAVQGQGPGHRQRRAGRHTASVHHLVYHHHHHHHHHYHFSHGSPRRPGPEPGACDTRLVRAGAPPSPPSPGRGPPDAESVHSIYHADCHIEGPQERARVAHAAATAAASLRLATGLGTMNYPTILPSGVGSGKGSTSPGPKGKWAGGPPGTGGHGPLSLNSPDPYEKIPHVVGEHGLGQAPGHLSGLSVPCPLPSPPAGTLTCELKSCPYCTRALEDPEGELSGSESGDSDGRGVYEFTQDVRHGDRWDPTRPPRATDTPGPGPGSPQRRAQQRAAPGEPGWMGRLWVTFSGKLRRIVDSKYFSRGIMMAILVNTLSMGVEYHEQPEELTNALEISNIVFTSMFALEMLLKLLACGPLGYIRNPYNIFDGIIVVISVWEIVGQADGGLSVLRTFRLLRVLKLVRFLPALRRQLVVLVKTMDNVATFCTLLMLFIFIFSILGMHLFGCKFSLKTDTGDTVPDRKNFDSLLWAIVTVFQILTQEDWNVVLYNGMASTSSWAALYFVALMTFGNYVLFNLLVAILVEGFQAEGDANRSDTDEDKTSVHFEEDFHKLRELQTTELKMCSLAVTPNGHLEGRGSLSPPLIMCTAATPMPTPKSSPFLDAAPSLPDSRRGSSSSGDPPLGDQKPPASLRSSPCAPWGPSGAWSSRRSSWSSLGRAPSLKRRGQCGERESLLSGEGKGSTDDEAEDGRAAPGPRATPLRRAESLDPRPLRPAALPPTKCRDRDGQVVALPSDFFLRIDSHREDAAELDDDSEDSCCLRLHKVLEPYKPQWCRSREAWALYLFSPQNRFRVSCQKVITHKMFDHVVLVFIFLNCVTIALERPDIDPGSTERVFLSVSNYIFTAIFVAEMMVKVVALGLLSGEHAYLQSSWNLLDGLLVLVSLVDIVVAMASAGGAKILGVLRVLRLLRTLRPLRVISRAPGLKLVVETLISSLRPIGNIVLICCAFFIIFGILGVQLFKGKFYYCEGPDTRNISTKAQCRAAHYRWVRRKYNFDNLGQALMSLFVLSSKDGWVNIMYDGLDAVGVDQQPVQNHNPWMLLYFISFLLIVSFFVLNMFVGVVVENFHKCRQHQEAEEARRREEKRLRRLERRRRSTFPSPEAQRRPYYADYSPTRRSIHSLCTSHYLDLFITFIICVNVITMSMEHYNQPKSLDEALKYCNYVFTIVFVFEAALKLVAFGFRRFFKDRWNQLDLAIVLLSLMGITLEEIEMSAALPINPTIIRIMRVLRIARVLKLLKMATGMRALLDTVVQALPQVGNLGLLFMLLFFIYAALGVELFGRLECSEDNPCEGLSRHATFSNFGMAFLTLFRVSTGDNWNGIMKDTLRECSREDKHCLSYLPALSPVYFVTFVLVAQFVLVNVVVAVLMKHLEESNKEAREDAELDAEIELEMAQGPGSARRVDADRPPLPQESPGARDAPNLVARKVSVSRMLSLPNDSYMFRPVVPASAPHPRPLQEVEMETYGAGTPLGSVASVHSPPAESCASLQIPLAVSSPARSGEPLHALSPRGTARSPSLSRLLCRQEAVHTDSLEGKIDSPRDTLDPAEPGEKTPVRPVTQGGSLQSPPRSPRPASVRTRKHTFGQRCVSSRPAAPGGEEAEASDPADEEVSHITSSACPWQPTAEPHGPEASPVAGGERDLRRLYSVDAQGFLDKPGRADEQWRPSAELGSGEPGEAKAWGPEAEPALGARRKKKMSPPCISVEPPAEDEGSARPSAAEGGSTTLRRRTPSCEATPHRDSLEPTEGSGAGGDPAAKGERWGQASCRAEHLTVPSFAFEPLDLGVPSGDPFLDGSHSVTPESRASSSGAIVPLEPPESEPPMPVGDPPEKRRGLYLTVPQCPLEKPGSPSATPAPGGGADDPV

H9c2 = test: cells; type: functional, cell-based; conditions: Rattus norvegicus, H9c2, Myocardium;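 further: confirmatory concentration-response retest of ultra-high-throughput screening hits for modulation of myocardial damage; cell death induced by hydrogen peroxide oxidative stress; compound pretreatment for 60 min then peroxide exposure for 2 h; potency is for protecting the cells against peroxide damage rather than for killing them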
[3] = target: Alkaline phosphatase, placental type (Homo sapiens, UniProt P05187); test: PLAP enzyme inhibitors, confirmation, biochemical, luminescence (AID 1512); type: functional
Sequence of Alkaline phosphatase, placental type (P05187 whole entry): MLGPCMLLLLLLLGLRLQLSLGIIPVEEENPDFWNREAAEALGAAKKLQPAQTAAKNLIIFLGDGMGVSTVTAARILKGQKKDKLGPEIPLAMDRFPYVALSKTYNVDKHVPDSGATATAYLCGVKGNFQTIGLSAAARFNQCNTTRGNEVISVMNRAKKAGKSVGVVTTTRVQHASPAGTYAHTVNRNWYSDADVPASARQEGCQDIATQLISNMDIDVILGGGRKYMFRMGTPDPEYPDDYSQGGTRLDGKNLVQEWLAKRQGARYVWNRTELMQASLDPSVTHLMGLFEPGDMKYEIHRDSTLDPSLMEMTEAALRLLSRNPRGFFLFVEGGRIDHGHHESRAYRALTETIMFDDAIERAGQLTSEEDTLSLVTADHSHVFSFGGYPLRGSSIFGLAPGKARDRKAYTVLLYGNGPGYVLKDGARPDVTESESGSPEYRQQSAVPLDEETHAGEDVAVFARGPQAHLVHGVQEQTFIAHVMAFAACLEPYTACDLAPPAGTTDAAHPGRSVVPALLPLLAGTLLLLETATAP

HEK293 [4] = test: NOD1 signaling inhibitors, primary screen, cell-based, luminescence, uHTS (AID 1578); type: functional; conditions: Homo sapiens
HEK293 [5] = test: cells; type: functional, cell-based; conditions: Homo sapiens
HEK293 [6] = test: cells; type: functional, cell-based; conditions: Homo sapiens; remark: listed apart in the source
HEK293 [7] = test: NOD2 signaling inhibitors in MDP-stimulated cells, cell-based, uHTS, luminescence (AID 2001); type: functional; conditions: Homo sapiens
Tumor necrosis factor = Tumor necrosis factor (Homo sapiens, UniProt P01375); test: TNFa-triggered NF-kB activation inhibitors, SAR follow-up, cell-based, revised (AID 2337); type: functional
[8] = target: T2, Nucleotide-binding oligomerization domain-containing protein 1 (Homo sapiens, UniProt Q9Y239); test: NOD1 signaling inhibitors, SAR follow-up, revised (AID 2333); type: functional
T2 sequence (Q9Y239 whole entry): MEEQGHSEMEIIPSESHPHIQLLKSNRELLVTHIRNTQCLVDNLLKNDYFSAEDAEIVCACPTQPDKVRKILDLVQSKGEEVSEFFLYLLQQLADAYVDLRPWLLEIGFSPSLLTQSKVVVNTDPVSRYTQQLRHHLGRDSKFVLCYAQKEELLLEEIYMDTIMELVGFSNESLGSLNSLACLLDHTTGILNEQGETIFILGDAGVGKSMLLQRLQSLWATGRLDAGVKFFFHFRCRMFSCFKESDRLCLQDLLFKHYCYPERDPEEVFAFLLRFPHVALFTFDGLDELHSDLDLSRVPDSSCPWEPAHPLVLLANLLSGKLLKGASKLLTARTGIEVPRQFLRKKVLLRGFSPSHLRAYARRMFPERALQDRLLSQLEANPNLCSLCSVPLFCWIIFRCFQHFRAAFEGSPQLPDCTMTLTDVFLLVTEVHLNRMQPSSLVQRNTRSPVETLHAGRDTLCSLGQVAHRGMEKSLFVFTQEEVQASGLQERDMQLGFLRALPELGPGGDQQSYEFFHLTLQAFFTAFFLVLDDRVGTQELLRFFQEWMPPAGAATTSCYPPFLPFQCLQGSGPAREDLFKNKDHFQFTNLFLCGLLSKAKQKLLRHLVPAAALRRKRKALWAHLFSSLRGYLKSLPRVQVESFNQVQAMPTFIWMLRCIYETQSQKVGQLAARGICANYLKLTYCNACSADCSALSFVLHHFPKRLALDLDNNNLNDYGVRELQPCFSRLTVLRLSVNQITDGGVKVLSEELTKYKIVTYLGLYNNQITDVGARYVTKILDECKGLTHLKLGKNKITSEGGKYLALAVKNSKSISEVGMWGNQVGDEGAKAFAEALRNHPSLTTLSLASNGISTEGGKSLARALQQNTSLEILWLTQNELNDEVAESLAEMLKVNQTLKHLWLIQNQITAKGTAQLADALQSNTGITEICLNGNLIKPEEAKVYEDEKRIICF

HEK293 [9] = test: cells; conditions: Homo sapiens
[10] = target: Nucleotide-binding oligomerization domain-containing protein 2 (Homo sapiens, UniProt Q9HC29); test: NOD2 signaling inhibitors, cell-based, luminescence, uHTS, HEK293 (AID 1566); type: functional
Sequence of Nucleotide-binding oligomerization domain-containing protein 2 (Q9HC29 whole entry, the tested form may be a part): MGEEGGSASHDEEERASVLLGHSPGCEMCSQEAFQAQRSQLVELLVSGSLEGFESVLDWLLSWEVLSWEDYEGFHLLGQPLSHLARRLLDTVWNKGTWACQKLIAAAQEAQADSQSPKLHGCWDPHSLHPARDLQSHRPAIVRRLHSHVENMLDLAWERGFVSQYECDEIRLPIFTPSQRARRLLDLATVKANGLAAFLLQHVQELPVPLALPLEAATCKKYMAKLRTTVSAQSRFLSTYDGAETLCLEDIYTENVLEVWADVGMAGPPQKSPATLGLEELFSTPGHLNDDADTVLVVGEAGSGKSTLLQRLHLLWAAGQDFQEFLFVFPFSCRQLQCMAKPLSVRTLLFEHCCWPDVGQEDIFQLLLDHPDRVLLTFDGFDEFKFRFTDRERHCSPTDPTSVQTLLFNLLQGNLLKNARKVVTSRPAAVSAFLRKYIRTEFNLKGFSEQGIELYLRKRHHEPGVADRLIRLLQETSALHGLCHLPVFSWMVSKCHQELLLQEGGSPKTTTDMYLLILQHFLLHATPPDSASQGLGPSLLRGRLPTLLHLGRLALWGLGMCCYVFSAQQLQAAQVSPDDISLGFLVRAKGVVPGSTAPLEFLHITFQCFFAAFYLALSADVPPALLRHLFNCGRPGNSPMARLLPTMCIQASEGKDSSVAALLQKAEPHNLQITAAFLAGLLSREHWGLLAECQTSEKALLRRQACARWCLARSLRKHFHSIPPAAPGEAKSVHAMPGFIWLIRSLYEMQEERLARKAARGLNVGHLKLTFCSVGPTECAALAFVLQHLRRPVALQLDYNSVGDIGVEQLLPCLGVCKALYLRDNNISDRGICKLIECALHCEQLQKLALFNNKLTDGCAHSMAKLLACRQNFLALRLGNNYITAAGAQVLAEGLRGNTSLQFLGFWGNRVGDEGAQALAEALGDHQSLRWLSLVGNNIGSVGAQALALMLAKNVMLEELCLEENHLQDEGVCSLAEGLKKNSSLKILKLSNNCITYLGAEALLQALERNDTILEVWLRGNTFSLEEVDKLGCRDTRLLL

HEK293 [11] = test: cells; type: functional, cell-based; conditions: Homo sapiens; remark: listed apart in the source
[12] = cytotoxicity in HEK-293T cells, dose response, cytotoxicity control for TCR NF-kB inhibitor project, luminescence, T-cell screen hits (AID 489026); type: functional, cell-based;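 further: cells exposed to compound about 14 hours before the viability readout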
[13] = THP-1 cell cytotoxicity, dose response, cytotoxicity control for non-replicating M. tuberculosis project (AID 489025); type: functional
[14] = Vero E6 cell cytotoxicity, dose response, cytotoxicity control for non-replicating M. tuberculosis project, secondary assay (AID 492998); type: functional, VeroE6; conditions: Vero C1008
cells = type: functional
Protein skinhead-1 = target: T3, Protein skinhead-1 (Caenorhabditis elegans, UniProt P34707); type: functional
T3 sequence (P34707 whole entry): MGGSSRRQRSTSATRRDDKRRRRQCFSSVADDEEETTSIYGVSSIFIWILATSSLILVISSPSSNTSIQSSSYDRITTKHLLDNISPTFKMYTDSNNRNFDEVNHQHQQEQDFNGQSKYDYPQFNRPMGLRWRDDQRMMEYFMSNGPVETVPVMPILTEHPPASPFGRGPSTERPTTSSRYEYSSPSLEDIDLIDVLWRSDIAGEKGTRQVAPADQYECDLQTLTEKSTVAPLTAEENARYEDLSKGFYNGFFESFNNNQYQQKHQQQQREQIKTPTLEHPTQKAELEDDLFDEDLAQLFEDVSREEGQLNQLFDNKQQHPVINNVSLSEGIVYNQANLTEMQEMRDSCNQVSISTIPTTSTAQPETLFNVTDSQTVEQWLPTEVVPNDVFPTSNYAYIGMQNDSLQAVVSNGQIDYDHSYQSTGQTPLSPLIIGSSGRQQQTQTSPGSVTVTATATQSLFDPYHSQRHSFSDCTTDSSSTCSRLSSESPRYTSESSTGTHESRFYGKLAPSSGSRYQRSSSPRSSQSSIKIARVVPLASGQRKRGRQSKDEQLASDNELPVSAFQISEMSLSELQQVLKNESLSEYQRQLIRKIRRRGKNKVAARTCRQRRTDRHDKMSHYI

[15] = target: T4, Alkaline phosphatase, tissue-nonspecific isozyme (Homo sapiens, UniProt P05186); test: human TNAP enzyme inhibitors, SAR follow-up, biochemical, luminescent, dose response (AID 1056)
T4 sequence (P05186 whole entry): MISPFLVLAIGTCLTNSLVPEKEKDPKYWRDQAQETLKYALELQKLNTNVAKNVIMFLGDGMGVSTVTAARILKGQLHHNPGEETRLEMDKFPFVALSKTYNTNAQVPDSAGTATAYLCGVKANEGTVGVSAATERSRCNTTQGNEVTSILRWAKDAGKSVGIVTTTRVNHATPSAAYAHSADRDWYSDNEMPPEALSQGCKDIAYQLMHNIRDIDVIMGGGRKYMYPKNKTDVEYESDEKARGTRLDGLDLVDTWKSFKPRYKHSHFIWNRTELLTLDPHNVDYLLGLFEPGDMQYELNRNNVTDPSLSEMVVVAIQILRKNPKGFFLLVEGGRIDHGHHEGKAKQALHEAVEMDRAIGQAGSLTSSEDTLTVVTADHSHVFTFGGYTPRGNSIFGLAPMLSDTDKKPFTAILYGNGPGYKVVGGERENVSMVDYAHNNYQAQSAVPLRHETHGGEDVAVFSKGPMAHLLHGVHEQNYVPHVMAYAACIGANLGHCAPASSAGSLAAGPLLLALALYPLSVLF

[16] = target: Intestinal-type alkaline phosphatase (Mus musculus, UniProt P24822); test: PubChem AID 488785; type: functional
[17] = target: DNA dC->dU-editing enzyme APOBEC-3G (Homo sapiens, UniProt Q9HC16); test: Dose Response confirmation of small molecule APOBEC3G DNA Deaminase Inhibitors via a fluorescence-based single-stranded DNA deaminase assay. [Related pubchem assays (depositor defined):AID493012, AID493028]; type: functional
[18] = target: T4, Alkaline phosphatase, tissue-nonspecific isozyme; test: TNAP enzyme inhibition by screening hits, dose response, selectivity assay for mouse IAP inhibitor project, biochemical, human TNAP, uHTS hits (AID 488906); type: functional
Cytochrome P450 2C19 = Cytochrome P450 2C19 (Homo sapiens, UniProt P33261); test: Cytochrome panel assay with activity outcomes. Panel member name: p450-cyp2c19 Compounds with AC50 equal or less than 10 uM are considered active; type: functional; conditions: read-out: AC50
Sequence of Cytochrome P450 2C19 (P33261 whole entry): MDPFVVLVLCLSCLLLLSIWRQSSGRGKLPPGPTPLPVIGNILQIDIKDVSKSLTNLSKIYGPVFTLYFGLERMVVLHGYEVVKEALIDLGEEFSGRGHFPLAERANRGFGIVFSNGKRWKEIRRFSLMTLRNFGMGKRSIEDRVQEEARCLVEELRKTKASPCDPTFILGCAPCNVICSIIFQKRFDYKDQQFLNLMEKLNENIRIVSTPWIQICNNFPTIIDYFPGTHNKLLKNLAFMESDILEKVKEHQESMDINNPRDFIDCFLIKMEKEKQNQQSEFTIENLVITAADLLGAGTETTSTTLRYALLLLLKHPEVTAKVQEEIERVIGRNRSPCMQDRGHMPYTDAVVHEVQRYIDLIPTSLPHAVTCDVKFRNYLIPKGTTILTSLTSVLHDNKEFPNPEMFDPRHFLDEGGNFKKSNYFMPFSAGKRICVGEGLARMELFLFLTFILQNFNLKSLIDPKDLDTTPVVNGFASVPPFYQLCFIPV

Caspase-6 = target: T5, Caspase-6 (Homo sapiens, UniProt P55212); test: human caspase-6 inhibitors, dose response, biochemical, VEID-R110 fluorescence, cherry-pick (AID 720632)
T5 sequence (P55212 whole entry): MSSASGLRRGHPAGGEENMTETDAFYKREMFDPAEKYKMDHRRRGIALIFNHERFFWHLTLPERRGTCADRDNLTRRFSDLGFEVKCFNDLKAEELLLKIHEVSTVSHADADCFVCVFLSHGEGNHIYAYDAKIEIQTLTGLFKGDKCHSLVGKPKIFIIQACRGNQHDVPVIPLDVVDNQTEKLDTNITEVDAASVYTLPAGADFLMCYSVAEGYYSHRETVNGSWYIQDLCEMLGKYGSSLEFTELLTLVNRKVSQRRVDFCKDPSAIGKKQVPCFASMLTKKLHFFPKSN

Cytochrome P450 3A4 [19] = target: T6, Cytochrome P450 3A4 (Homo sapiens, UniProt P08684); conditions: Potency
T6 sequence (P08684 whole entry): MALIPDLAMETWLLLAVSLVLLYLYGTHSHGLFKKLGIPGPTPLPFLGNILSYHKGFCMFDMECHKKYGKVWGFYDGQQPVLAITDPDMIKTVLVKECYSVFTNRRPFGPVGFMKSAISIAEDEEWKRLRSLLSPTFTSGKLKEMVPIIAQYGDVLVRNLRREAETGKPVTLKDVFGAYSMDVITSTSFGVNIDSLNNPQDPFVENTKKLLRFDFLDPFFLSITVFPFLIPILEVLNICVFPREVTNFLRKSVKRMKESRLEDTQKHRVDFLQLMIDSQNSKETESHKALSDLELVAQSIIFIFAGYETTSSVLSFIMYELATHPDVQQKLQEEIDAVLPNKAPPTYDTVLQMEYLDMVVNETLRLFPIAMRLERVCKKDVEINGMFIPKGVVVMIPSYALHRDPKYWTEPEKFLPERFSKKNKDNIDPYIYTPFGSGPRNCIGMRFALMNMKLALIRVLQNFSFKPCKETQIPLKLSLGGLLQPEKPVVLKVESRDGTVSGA

Cytochrome P450 3A4 [20] = target: T6, Cytochrome P450 3A4

Compound | EC50 (HEK293 [4]) | IC50 (HEK293 [5]) | IC50 (HEK293 [6]) | IC50 (HEK293 [7]) | EC50 [10] | IC50 (HEK293 [11]) | other results
O=C(CCCSc1ccccc1)Nc1nc(-c2ccccn2)cs1 | – | – | – | – | – | – | EC50 [1]: 5.14 µM (active); EC50 (Streptokinase A): > 150 µM (not active); EC50 (Streptococcus): 45.8 µM (active); EC50 [2]: 4.7 µM (active); IC50 (H9c2): > 79 µM (inactive)
CCc1ccc2nc(Nc3nc(COC)cc(=O)[nH]3)nc(C)c2c1 | – | – | – | – | – | – | IC50 [3]: > 100 µM (inactive)
Cc1ccc(C(=O)N2CCN(c3ccc(F)cc3)CC2)cc1S(=O)(=O)N1CCCCC1 | 5.48 µM (active) | 11.2 µM (active) | > 20 µM (inactive) | 12.9 µM (inactive) | – | – | IC50 (Tumor necrosis factor): 9.82 µM (active); IC50 [8]: 5.07 µM (active); IC50 (HEK293 [9]): > 20 µM (inactive)
Cc1csc2ncnc(NC3CCN(Cc4ccccc4)CC3)c12 | 1.92 µM (active) | 1.61 µM (active) | > 20 µM (inactive) | 2.36 µM (active) | 7.78 µM (active) | > 20 µM (inactive) | IC50 [12]: > 80 µM (inactive)
COc1ccc(O)c(-c2[nH]ncc2C(=O)c2ccccc2)c1 | 15 µM (active) | 9.31 µM (active) | > 20 µM (inactive) | 14 µM (inactive) | 14.3 µM (active) | > 20 µM (inactive) | –
COc1ccc(CCNc2oc(COc3ccc(Br)cc3)nc2C#N)cc1OC | 10.5 µM (active) | 5.86 µM (active) | 8.84 µM (active) | 5.07 µM (active) | 12.8 µM (active) | > 20 µM (inactive) | –
O=C(Nc1nc(-c2cc(F)ccc2F)cs1)c1ccccn1 | – | – | – | – | – | – | CC50 [13]: 29.4 µM (active); CC50 [14]: > 20 µM (active); IC50 (cells): 0.83 µM (active); IC50 (Protein skinhead-1): > 100 µM (inactive)
COc1ccc(-n2c(C)c([N+](=O)[O-])c3ccc(O)c(CN4CCCCC4)c32)cc1 | 2.77 µM (active) | 2.1 µM (active) | > 20 µM (inactive) | 2.39 µM (active) | > 20 µM (inactive) | > 20 µM (inactive) | –
CCCCN1C(=O)/C(=N\Nc2ccccc2OC)c2ccccc21 | – | – | – | – | – | – | IC50 [3]: 87.9 µM (active); IC50 [15]: 28.7 µM (active)
Cc1cc(C(=O)NCCc2ccc(O)c(O)c2)c(C)o1 | – | – | – | – | – | – | IC50 [3]: > 100 µM (inactive); IC50 [15]: > 100 µM (inactive)
O=c1c(O)c(-c2cc(O)c(O)c(O)c2)oc2cc(O)cc(O)c12 [MYRICETIN] | – | – | – | – | – | – | IC50 [16]: 12.5 µM (active); IC50 [17]: 2.39 µM (active); IC50 [18]: 33.2 µM (active); AC50 (Cytochrome P450 2C19): 3.98 µM (inconclusive) and 20 µM (inconclusive); AC50 (Caspase-6): 0.461 µM (active); AC50 (Cytochrome P450 3A4 [19]): 25.1 µM (inconclusive); AC50 (Cytochrome P450 3A4 [20]): 3.98 µM (inconclusive)
